The supplement of paper PMC10307832

Key:
Assay in all cases: relative viability (nuclei count vs DMSO), 5 days (fraction); higher = more cells survive
Bortezomib + Palbociclib = compound: CC(C)C[C@H](NC(=O)[C@H](Cc1ccccc1)NC(=O)c1cnccn1)B(O)O [Bortezomib] + CC(=O)c1c(C)c2cnc(Nc3ccc(N4CCNCC4)cn3)nc2n(C2CCCC2)c1=O [Palbociclib] (partner 0.5 µM)
In short: (§1)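 Nuclei were stained with Hoechst during a one-step fixation (final 0.05% Triton X-100, 1% formaldehyde, 1 ug/ml Hoechst) carried out 5 days after dosing, then counted on 4× images. The cells, lung cancer lines in 1536-well plates, had been dosed by pin tool the day after seeding with one drug alone or a fixed anchor-drug dose plus five library-drug doses (not always all listed) in √10 steps. Relative viability is the nuclei count in treated wells divided by that in vehicle wells, and each value is the median of duplicate plates.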

Obatoclax + Alpelisib = compound: COC1=CC(c2cc3ccccc3[nH]2)=N/C1=C\c1[nH]c(C)cc1C [Obatoclax] + Cc1nc(NC(=O)N2CCC[C@H]2C(N)=O)sc1-c1ccnc(C(C)(C)C(F)(F)F)c1 [Alpelisib] (partner 2 µM)
In short: as §1

Bortezomib + Pictilisib = compound: CC(C)C[C@H](NC(=O)[C@H](Cc1ccccc1)NC(=O)c1cnccn1)B(O)O [Bortezomib] + CS(=O)(=O)N1CCN(Cc2cc3nc(-c4cccc5[nH]ncc45)nc(N4CCOCC4)c3s2)CC1 [Pictilisib] (partner 1 µM)
In short: as §1

Obatoclax + Dasatinib = compound: COC1=CC(c2cc3ccccc3[nH]2)=N/C1=C\c1[nH]c(C)cc1C [Obatoclax] + Cc1nc(Nc2ncc(C(=O)Nc3c(C)cccc3Cl)s2)cc(N2CCN(CCO)CC2)n1 [Dasatinib] (partner 0.075 µM)
In short: as §1

Row | Cell Line | relative viability (Bortezomib + Palbociclib; first compound 0.0002 µM) | relative viability (Bortezomib + Palbociclib; first compound 0.000632 µM) | relative viability (Bortezomib + Palbociclib; first compound 0.002 µM) | relative viability (Bortezomib + Palbociclib; first compound 0.006325 µM) | relative viability (Bortezomib + Palbociclib; first compound 0.02 µM) | relative viability (Obatoclax + Alpelisib; first compound 0.01 µM) | relative viability (Obatoclax + Alpelisib; first compound 0.03162 µM) | relative viability (Obatoclax + Alpelisib; first compound 0.1 µM) | relative viability (Obatoclax + Alpelisib; first compound 0.3162 µM) | relative viability (Obatoclax + Alpelisib; first compound 1 µM) | relative viability (Bortezomib + Pictilisib; first compound 0.0002 µM) | relative viability (Bortezomib + Pictilisib; first compound 0.000632 µM) | relative viability (Bortezomib + Pictilisib; first compound 0.002 µM) | relative viability (Bortezomib + Pictilisib; first compound 0.006325 µM) | relative viability (Bortezomib + Pictilisib; first compound 0.02 µM) | relative viability (Obatoclax + Dasatinib; first compound 0.01 µM) | relative viability (Obatoclax + Dasatinib; first compound 0.03162 µM) | relative viability (Obatoclax + Dasatinib; first compound 0.1 µM) | relative viability (Obatoclax + Dasatinib; first compound 0.3162 µM) | relative viability (Obatoclax + Dasatinib; first compound 1 µM)
1 | NCI-H2085 | 0.464 | 0.475 | 0.458 | 0.253 | 0.232 | 0.89 | 0.925 | 0.98 | 0.57 | 0.29 | 0.404 | 0.465 | 0.447 | 0.39 | 0.218 | 0.256 | 0.205 | 0.508 | 0.256 | 0.226
2 | NCI-H2087 | 0.218 | 0.246 | 0.156 | 0.0525 | 0.036 | 0.738 | 1.18 | 0.953 | 0.854 | 0.354 | 0.77 | 0.74 | 0.7 | 0.159 | 0.0891 | 0.837 | 0.747 | 0.723 | 0.361 | 0.135
3 | HCC-366 | 0.352 | 0.319 | 0.372 | 0.0727 | 0.0268 | 0.382 | 0.363 | 0.366 | 0.396 | 0.233 | 0.119 | 0.12 | 0.117 | 0.166 | 0.0325 | 0.667 | 0.574 | 0.39 | 0.574 | 0.533
4 | NCI-H2126 | 0.365 | 0.349 | 0.369 | 0.328 | 0.208 | 0.779 | 0.752 | 0.743 | 0.769 | 0.714 | 0.462 | 0.497 | 0.535 | 0.465 | 0.483 | 0.675 | 0.538 | 0.524 | 0.613 | 0.536
5 | SK-LU-1 | 0.387 | 0.361 | 0.359 | 0.279 | 0.158 | 0.825 | 0.984 | 0.779 | 0.355 | 0.29 | 0.521 | 0.528 | 0.503 | 0.166 | 0.14 | 0.184 | 0.19 | 0.141 | 0.157 | 0.141
6 | HCC-78 | 0.517 | 0.531 | 0.444 | 0.451 | 0.405 | 0.314 | 0.35 |  | 0.26 | 0.321 | 0.183 | 0.23 | 0.207 | 0.21 | 0.193 | 0.48 | 0.406 | 0.419 | 0.324 | 0.418
7 | LCLC-97TM1 | 0.235 | 0.183 | 0.12 | 0.0721 | 0.0639 | 0.27 | 0.232 | 0.283 | 0.227 | 0.293 | 0.177 | 0.178 | 0.195 | 0.132 | 0.207 | 0.928 | 0.746 | 0.916 | 0.842 | 0.682
8 | NCI-H838 | 0.211 | 0.23 | 0.191 | 0.136 | 0.103 | 0.968 | 0.992 | 0.914 | 0.822 | 0.617 | 0.425 | 0.499 | 0.556 | 0.158 | 0.128 | 0.298 | 0.25 |  | 0.277 | 0.226
9 | NCI-H520 | 0.198 | 0.18 | 0.169 | 0.141 | 0.131 | 0.901 | 0.953 | 0.92 | 0.7 | 0.835 | 0.269 | 0.283 | 0.229 | 0.184 | 0.184 | 0.196 | 0.214 | 0.205 | 0.22 | 0.194
10 | NCI-H2347 | 0.401 | 0.497 | 0.406 | 0.292 | 0.231 | 1.02 | 0.994 | 0.841 | 1.01 | 0.93 | 0.803 | 0.587 | 0.564 | 0.318 | 0.0071 | 0.305 | 0.281 |  | 0.308 | 0.324
11 | NCI-H441 | 0.22 | 0.2 | 0.129 | 0.109 | 0.101 | 0.662 | 0.822 | 0.632 | 0.419 | 0.327 | 0.483 | 0.315 | 0.35 | 0.0918 | 0.102 | 0.537 | 0.634 | 0.542 | 0.402 | 0.208
12 | NCI-H358 | 0.158 | 0.11 | 0.0987 | 0.0826 | 0.0983 | 0.925 | 0.848 | 0.635 | 0.336 | 0.283 | 0.331 | 0.305 | 0.357 | 0.207 | 0.16 | 0.142 | 0.193 | 0.218 | 0.132 | 0.114
13 | NCI-H2405 | 0.503 | 0.547 | 0.349 | 0.143 | 0.141 | 0.806 | 0.891 |  | 0.777 | 0.711 | 0.462 |  | 0.464 | 0.152 | 0.148 | 0.218 | 0.197 |  | 0.205 | 0.22
14 | HCC-15 | 0.622 | 0.769 | 0.689 | 0.104 | 0.0904 | 0.844 | 0.777 | 0.827 | 0.856 | 0.609 | 0.649 | 0.745 | 0.733 | 0.396 | 0.111 | 0.574 | 0.589 | 0.533 | 0.626 | 0.368
